This note sets out measurements from patent publication US20110230471A1, “BENZONAPHTYRIDINE COMPOUNDS AS INHIBITORS OF AUTOTAXIN” (MERCK PATENT GESELLSCHAFT MIT BESCHRANKTER HAFTUNG, priority 2008, published 2011).

The term IC50 denotes the concentration that inhibits the measured activity by half.

The target in one experiment is T1, recombinant autotaxin (Homo sapiens, UniProt Q13822).
T1 construct: made in house; host or cells: Hi5 insect cells (baculovirus)
Put plainly: Autotaxin test (enzyme test), Amplex Red. The class given is biochemical. Conditions: Autotaxin inhibition (enzyme test), TABLE 1 (A compounds); substrate LPC 75 μM. The procedure: The autotaxin activity is measured indirectly using Amplex Red reagent. Amplex Red is measured here as fluorogenic indicator for the H2O2 formed. In detail, autotaxin converts the substrate lysophosphatidylcholine (LPC) into phosphocholine and lysophosphatidylic acid (LPA). After this reaction, the phosphocholine is reacted with alkaline phosphatase to give inorganic phosphate and choline. In the next step, choline is oxidised by choline oxidase to give betaine, with formation of H2O2. H2O2 reacts with Amplex Red reagent in the presence of peroxidase (horseradish peroxidase) in a 1:1 stoichiometry and forms the highly fluorescent resorufin. The fluorescence is measured in a reaction-dependent kinetic mode in order that fluorescent signals from possible other fluorescent substances which are not involved in the reaction can be corrected out.
1.5 μl of a standard solution or of the test substances (substances with the name A(n))in individual concentrations dissolved in 20 mM Hepes pH 7.2 with a maximum of 7.7% of DMSO are pre-incubated together with 10 μl (16 ng) of highly purified recombinant autotaxin in a black microtitre plate provided with 384 wells at 22° C. for 30 min. The reaction is then initiated by addition of 5 μl of L-α-lysophosphatidylcholine (LPC), where the final concentration of LPC is 75 μM. The mixture is incubated at 37° C. for 90 min. After the incubation, Amplex Red reagent, peroxidase (horseradish peroxidase) and choline oxidase is added, and the fluorescence is immediately measured at 612 nm with excitation of 485 nm in a “Tecan Ultra multimode” reader. The activity of autotaxin is calculated indirectly via detection of the H2O2 formed.
• Microtitre plate: PS microplate, 384 wells, small volume, black Corning, Cat#3677 • Protein: recombinant autotaxin (Baculovirale Hi5 Expression) • Substrate: L-α-lysophosphatidylcholine (chicken egg)); Avanti Polar Lipids # 830071 P • Standard: C14 LPA, Avanti Polar Lipids, Cat# 857120P • Detection reagent: Amplex Red reagent; Invitrogen # A12222; dissolved in 1.923 ml of DMSO peroxidase type VI-A (horseradish) from Sigma # P6782; dissolved in 7.45 ml of test buffer, choline oxidase; Sigma # C5896; dissolved in 2.47 ml of test buffer • Detection reagent mix: 1:100 dilution of Amplex Red reagent in test buffer • Test buffer: 200 mM Tris HCl, Merck, Cat # 1.08219, pH 7.9, 0.1% of BSA, lipid-free, Roche Cat#775835
Take `COc1ccc(Cl)cc1NC(=O)CN1CCc2nc3ccccc3c(C(=O)N3CCN(CCN(C)C)CC3)c2C1` [Compound A67, N-(5-Chloro-2-methoxyphenyl)-2-{10-[4-(2-dimethylaminoethyl)piperazine-1-carbonyl]-3,4-dihydro-1H-benzo[b][1,6]naphthyridin-2-yl}acetamide]: the IC50 is under 0.1 µM. With `O=C(CN1CCc2nc3ccccc3c(C(=O)N3CCOCC3)c2C1)Nc1cc(Cl)cc2ccoc12` [Compound A48, N-(5-Chlorobenzofuran-7-yl)-2-[10-(morpholine-4-carbonyl)-3,4-dihydro-1H-benzo[b][1,6]naphthyridin-2-yl]acetamide], the IC50 is 0.1 to 1 µM. On the same count and under the same terms, with `COc1ccc(Cl)cc1NC(=O)CN1CCc2nc3c(Br)cccc3c(C(=O)N3CCOCC3)c2C1` [Compound A40, 2-[6-Bromo-10-(morpholine-4-carbonyl)-3,4-dihydro-1H-benzo[b][1,6]naphthyridin-2-yl]-N-(5-chloro-2-methoxyphenyl)acetamide] the figure was 0.1 to 1 µM. Regarding `O=C(CN1CCc2nc3ccccc3c(C(=O)N3CCN(CCO)CC3)c2C1)Nc1ccc(N2CCOCC2=O)c(Cl)c1` [Compound A65, N-[3-Chloro-4-(3-oxomorpholin-4-yl)phenyl]-2-{10-[4-(2-hydroxyethyl)-piperazine-1-carbonyl]-3,4-dihydro-1H-benzo[b][1,6]naphthyridin-2-yl}-acetamide], the IC50 is over 1 µM. On the same count and under the same terms, for `COc1ccc(Cl)cc1NC(=O)CN1CCc2nc3ccccc3c(C(=O)N3CCN(C4CCCC4)CC3)c2C1` [Compound A28, N-(5-Chloro-2-methoxyphenyl)-2-[10-(4-cyclopentylpiperazine-1-carbonyl)-3,4-dihydro-1H-benzo[b][1,6]naphthyridin-2-yl]acetamide] the value was 0.1 to 1 µM. For the compound `Cc1ccc(Cl)cc1NC(=O)CN1CCc2nc3ccccc3c(C(=O)N3CCOCC3)c2C1` [Compound A11, N-(5-Chloro-2-methylphenyl)-2-[10-(morpholine-4-carbonyl)-3,4-dihydro-1H-benzo[b][1,6]naphthyridin-2-yl]acetamide], the IC50 was over 1 µM. The same measure, in the same setting: with `O=C(CN1CCc2nc3ccccc3c(C(=O)N3CCOCC3)c2C1)Nc1cc(Cl)ccc1OCCO` [Compound A54, N-[5-Chloro-2-(2-hydroxyethoxy)phenyl]-2-[10-(morpholine-4-carbonyl)-3,4-dihydro-1H-benzo[b][1,6]naphthyridin-2-yl]acetamide] the figure was 0.1 to 1 µM.

On to `O=C(CN1CCc2nc3ccccc3c(C(=O)N3CCN(CCO)CC3)c2C1)Nc1cc(Cl)ccc1F` [Compound A78, N-(5-Chloro-2-fluorophenyl)-2-{10-[4-(2-hydroxyethyl)piperazine-1-carbonyl]-3,4-dihydro-1H-benzo[b][1,6]naphthyridin-2-yl}acetamide], for which the IC50 fell in the range of 0.1 to 1 µM. `COc1ccc(Cl)cc1NC(=O)CN1CCc2nc3ccccc3c(C(=O)N3CCN(C(=O)OCc4ccccc4)CC3)c2C1` [Compound A25, 4-{2-[(5-Chloro-2-methoxyphenylcarbamoyl)methyl]-1,2,3,4-tetrahydrobenzo[b][1,6]naphthyridine-10-carbonyl}piperazine-1-carboxylic acid benzyl ester]: the IC50 is 0.1 to 1 µM. The same measure, in the same setting: with `COc1ccc(Cl)cc1NC(=O)CN1CCc2nc3ccccc3c(C(=O)N3CCCN(Cc4ccccc4)CC3)c2C1` [Compound A26, 2-[10-(4-Benzyl-1,4-diazepan-1-carbonyl)-3,4-dihydro-1H-benzo[b][1,6]-naphthyridin-2-yl]-N-(5-chloro-2-methoxyphenyl)acetamide] the figure was 0.1 to 1 µM; with `COc1c(Cl)cc(Cl)cc1NC(=O)CN1CCc2nc3ccccc3c(C(=O)N3CCN(CCO)CC3)c2C1` [Compound A80, N-(3,5-Dichloro-2-methoxyphenyl)-2-{10-[4-(2-hydroxyethyl)piperazine-1-carbonyl]-3,4-dihydro-1H-benzo[b][1,6]naphthyridin-2-yl}acetamide], 0.1 to 1 µM; with `COc1ccc(Cl)cc1NC(=O)CN1CCc2nc3ccccc3c(C(=O)N3CCN(C)CC3)c2C1` [Compound A1, N-(5-chloro-2-methoxyphenyl)-2-[10-(4-methylpiperazine-1-carbonyl)-3,4-dihydro-1H-benzo[b][1,6]naphthyridin-2-yl]acetamide], under 0.1 µM.

Consider `COc1ccc(Cl)cc1NC(=O)CN1CCc2nc3c(Cl)cccc3c(C(=O)N3CCOCC3)c2C1` [Compound A16, N-(5-Chloro-2-methoxyphenyl)-2-[6-chloro-10-(morpholine-4-carbonyl)-3,4-dihydro-1H-benzo[b][1,6]naphthyridin-2-yl]acetamide], for which the IC50 fell in the range of 0.1 to 1 µM. Same read-out and setting: with `COc1ccc(Cl)cc1NC(=O)CN1CCc2nc3ccccc3c(C(=O)N3CCNCC3)c2C1` [Compound A27, N-(5-chloro-2-methoxyphenyl)-2-[10-(piperazine-1-carbonyl)-3,4-dihydro-1H-benzo[b][1,6]naphthyridin-2-yl]acetamide] the figure was 0.1 to 1 µM. Still for that read-out and setting: for `COc1ccc(Cl)cc1NC(=O)CN1CCc2nc3ccccc3c(C(=O)N3CCOCC3)c2C1` [Compound A7, N-(5-chloro-2-methoxyphenyl)-2-[10-(morpholine-4-carbonyl)-3,4-dihydro-1H-benzo[b][1,6]naphthyridin-2-yl]acetamide] the value was under 0.1 µM.

The experiment is the same for the next values; noted with them: Autotaxin inhibition (enzyme test), TABLE 2 (B compounds); substrate LPC 75 μM.
`CN1CCC(NC(=O)c2c3c(nc4ccccc24)CCN(Cc2ccc4c(Cl)cc(Cl)c(O)c4n2)C3)CC1` [Compound B57, N-(1-Methylpiperidin-4-yl)-2-(5,7-dichloro-8-hydroxyquinolin-2-ylmethyl)-1,2,3,4-tetrahydrobenzo[b][1,6]naphthyridine-10-carboxamide]: the IC50 was over 1 µM. On the same count and under the same terms, for `COc1ccc(Cl)cc1-c1nnc(CN2CCc3nc4ccccc4c(C(=O)NC4CCN(C)CC4)c3C2)o1` [Compound B33, N-(1-Methylpiperidin-4-yl)-2-[5-(5-chloro-2-methoxyphenyl)-1,3,4-oxadiazol-2-ylmethyl]-1,2,3,4-tetrahydrobenzo[b][1,6]naphthyridine-10-carboxamide] the value was over 1 µM.

`COc1ccc(Cl)cc1NC(=O)CN1CCc2nc3ccccc3c(C(=O)NC3CCCNC3=O)c2C1` (centres unmarked) [Compound B47, N-(2-Oxopiperidin-3-yl)-2-[(5-chloro-2-methoxyphenylcarbamoyl)methyl]-1,2,3,4-tetrahydrobenzo[b][1,6]naphthyridine-10-carboxamide]: the IC50 was 0.1 to 1 µM. On the same count and under the same terms, for `COc1ccc(Cl)cc1-c1nnc(CN2CCc3nc4ccccc4c(C(=O)NCC[N+](C)(C)Cc4nnc(-c5cc(Cl)ccc5OC)o4)c3C2)o1` [Compound B30, [5-(5-Chloro-2-methoxyphenyl)-1,3,4-oxadiazol-2-ylmethyl]-[2-({2-[5-(5-chloro-2-methoxyphenyl)-1,3,4-oxadiazol-2-ylmethyl]-1,2,3,4-tetrahydrobenzo[b][1,6]naphthyridine-10-carbonyl}amino)ethyl]dimethylammonium] the value was over 1 µM; for `COc1ccc(Cl)cc1NCCN1CCc2nc3ccccc3c(C(=O)N3CCN(CCO)CC3)c2C1` [Compound B14, {2-[2-(5-Chloro-2-methoxyphenylamino)ethyl]-1,2,3,4-tetrahydrobenzo-[b][1,6]naphthyridin-10-yl}-[4-(2-hydroxyethyl)piperazin-1-yl]methanone], over 1 µM; for `COc1ccc(Cl)cc1/C=C/C(=O)N1CCc2nc3ccccc3c(C(=O)NC3CCN(C)CC3)c2C1` [Compound B40, N-(1-Methylpiperidin-4-yl)-2-[(E)-3-(5-chloro-2-methoxyphenyl)acryloyl]-1,2,3,4-tetrahydrobenzo[b][1,6]naphthyridine-10-carboxamide], over 1 µM. On the same count and under the same terms, for `COc1c(F)cc(Br)cc1NC(=O)CN1CCc2nc3ccccc3c(C(=O)N3CCOCC3)c2C1` [Compound B24, N-(5-Bromo-3-fluoro-2-methoxyphenyl)-2-[10-(morpholine-4-carbonyl)-3,4-dihydro-1H-benzo[b][1,6]naphthyridin-2-yl]acetamide] the value was 0.1 to 1 µM. The same measure, in the same setting: for `COc1c(F)cc(-c2ccc(N)cc2)cc1NC(=O)CN1CCc2nc3ccccc3c(C(=O)N3CCOCC3)c2C1` [Compound B35, N-(4′-Amino-5-fluoro-4-methoxybiphenyl-3-yl)-2-[10-(morpholine-4-carbonyl)-3,4-dihydro-1H-benzo[b][1,6]naphthyridin-2-yl]acetamide] the value was over 1 µM.
